Data on one compound can be found in article PMC10954694, “Expression of ALS-PFN1 impairs vesicular degradation in iPSC-derived microglia” (Nature Communications, 2024).

The target of assay [1] is T1, profilin-1 (PFN1) M114T (Homo sapiens, UniProt P07737, M114T).
T1 construct: recombinant, SUMO tag cleaved, 15N labeled
In words: […]-1H HSQC NMR titration (global fit); DSF. Format: binding.

Assay [2] addresses T2, profilin-1 (PFN1) WT (Homo sapiens, UniProt P07737).
T2 construct: recombinant, SUMO tag cleaved, 15N labeled
In words: […]-1H HSQC NMR titration (global fit); DSF. Type of assay: binding.

T2 sequence (P07737 2-140): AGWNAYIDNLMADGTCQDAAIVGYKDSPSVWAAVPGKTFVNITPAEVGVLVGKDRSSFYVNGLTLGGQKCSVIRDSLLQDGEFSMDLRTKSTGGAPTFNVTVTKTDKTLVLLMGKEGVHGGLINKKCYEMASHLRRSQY
T1 sequence (P07737 2-140 M114T): as the sequence (P07737 2-140) above, with M113T counted along it

For the compound `CCCCCCCC(=O)OC[C@H](COP(=O)(O)O[C@@H]1[C@H](O)[C@H](OP(=O)(O)O)[C@@H](O)[C@H](O)[C@H]1O)OC(=O)CCCCCCC` [PI3P], the results for the Kd in assay [1] and in assay [2] were 370 ± 30 µM and 1880 ± 190 µM, respectively.
